Article PMC10879502, “Linking ATP and allosteric sites to achieve superadditive binding with bivalent EGFR kinase inhibitors” (Communications Chemistry, 2024)

Columns and labels:
Test in all cases: KINOMEscan
Format in all cases: binding
Conditions in all cases: 1 μM
EGFR(T790M) = EGFR(T790M) (Homo sapiens, UniProt P00533, T790M)
PIK3CA(H1047L) = PIK3CA(H1047L) (Homo sapiens, UniProt P42336, H1047L)
PIK3CG = PIK3CG (Homo sapiens, UniProt P48736)
CDK4 = CDK4 (Homo sapiens, UniProt P11802)
RIOK2 = RIOK2 (Homo sapiens, UniProt Q9BVS4)
MYLK2 = target: T1, MYLK2 (Homo sapiens, UniProt Q9H1R3)
T1 construct: purchased Eurofins DiscoverX Corporation

FRK = target: T2, FRK (Homo sapiens, UniProt P42685)
T2 construct: purchased Eurofins DiscoverX Corporation

DYRK2 = target: T3, DYRK2 (Homo sapiens, UniProt Q92630)
T3 construct: purchased Eurofins DiscoverX Corporation
T3 sequence (Q92630 whole entry): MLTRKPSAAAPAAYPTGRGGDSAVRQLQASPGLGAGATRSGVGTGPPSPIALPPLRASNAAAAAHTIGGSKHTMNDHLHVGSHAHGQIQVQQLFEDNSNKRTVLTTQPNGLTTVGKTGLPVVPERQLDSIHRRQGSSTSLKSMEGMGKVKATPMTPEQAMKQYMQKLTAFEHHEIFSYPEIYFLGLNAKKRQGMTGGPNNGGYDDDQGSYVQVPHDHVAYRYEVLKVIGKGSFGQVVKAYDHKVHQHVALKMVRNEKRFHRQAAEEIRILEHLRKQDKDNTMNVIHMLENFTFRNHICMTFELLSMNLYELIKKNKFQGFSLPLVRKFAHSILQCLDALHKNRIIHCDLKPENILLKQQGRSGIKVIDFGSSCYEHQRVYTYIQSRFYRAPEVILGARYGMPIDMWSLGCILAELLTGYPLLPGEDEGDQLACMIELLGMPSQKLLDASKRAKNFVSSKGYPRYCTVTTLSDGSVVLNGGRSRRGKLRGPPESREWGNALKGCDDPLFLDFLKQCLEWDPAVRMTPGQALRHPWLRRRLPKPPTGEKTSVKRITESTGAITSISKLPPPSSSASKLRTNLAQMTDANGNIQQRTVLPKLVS

MUSK = target: T4, MUSK (Homo sapiens, UniProt O15146)
T4 construct: purchased Eurofins DiscoverX Corporation

EPHB2 = EPHB2 (Homo sapiens, UniProt P29323)
LKB1 = target: T5, LKB1 (Homo sapiens, UniProt Q15831)
T5 construct: purchased Eurofins DiscoverX Corporation
T5 sequence (Q15831 whole entry): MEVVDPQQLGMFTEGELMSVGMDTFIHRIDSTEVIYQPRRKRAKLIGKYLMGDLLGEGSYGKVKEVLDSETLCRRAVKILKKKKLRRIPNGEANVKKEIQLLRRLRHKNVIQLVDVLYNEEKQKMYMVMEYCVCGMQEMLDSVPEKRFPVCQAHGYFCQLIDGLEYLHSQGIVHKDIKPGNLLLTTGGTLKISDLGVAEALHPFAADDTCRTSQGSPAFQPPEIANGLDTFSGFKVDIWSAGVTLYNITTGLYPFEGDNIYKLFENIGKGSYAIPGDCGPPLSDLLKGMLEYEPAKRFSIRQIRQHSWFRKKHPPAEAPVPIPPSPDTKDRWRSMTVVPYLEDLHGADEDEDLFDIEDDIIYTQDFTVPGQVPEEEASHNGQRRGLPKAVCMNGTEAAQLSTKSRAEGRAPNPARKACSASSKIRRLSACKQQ

PHKG1 = PHKG1 (Homo sapiens, UniProt Q16816)
Chain of PHKG1 (Q16816 whole entry): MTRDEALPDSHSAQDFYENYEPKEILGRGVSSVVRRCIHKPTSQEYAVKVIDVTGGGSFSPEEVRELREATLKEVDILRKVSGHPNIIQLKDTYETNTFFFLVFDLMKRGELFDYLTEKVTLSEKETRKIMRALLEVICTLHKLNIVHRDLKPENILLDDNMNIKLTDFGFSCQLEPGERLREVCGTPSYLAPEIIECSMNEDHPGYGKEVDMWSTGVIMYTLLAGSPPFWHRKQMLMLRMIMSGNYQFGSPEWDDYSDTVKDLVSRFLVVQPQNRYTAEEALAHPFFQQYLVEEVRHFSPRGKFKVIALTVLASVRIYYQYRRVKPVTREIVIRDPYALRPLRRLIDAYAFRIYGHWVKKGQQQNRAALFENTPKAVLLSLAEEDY

RET = RET (Homo sapiens, UniProt P07949)
Chain of RET (P07949 29-1114): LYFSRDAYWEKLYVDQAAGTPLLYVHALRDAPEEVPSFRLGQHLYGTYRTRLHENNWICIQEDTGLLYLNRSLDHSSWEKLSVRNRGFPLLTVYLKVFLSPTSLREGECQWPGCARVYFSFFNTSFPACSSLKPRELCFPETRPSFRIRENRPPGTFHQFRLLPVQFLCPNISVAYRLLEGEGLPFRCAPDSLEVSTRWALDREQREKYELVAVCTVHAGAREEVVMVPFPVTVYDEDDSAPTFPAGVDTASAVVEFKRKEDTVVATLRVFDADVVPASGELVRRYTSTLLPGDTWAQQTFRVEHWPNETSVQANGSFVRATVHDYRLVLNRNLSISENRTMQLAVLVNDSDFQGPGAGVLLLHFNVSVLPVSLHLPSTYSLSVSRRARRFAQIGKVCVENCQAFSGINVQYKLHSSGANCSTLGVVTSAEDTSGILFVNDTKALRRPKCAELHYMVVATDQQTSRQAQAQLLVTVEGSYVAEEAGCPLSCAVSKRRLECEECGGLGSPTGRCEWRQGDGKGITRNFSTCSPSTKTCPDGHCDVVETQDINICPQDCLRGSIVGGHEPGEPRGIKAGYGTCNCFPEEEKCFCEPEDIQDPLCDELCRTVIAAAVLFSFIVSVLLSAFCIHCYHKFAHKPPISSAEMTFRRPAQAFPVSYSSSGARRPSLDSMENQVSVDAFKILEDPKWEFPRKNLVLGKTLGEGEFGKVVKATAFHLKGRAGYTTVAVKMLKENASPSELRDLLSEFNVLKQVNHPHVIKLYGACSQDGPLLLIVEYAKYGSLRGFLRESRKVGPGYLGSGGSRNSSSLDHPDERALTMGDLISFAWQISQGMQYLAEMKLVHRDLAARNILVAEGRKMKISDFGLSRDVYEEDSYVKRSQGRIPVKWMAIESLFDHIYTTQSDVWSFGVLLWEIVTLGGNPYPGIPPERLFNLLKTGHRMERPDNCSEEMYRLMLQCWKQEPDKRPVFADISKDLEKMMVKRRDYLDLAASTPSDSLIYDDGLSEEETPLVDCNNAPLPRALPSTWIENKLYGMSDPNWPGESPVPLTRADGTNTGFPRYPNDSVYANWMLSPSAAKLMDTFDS

ADCK4 = ADCK4 (Homo sapiens, UniProt Q96D53)
MAP3K2 = target: T6, MAP3K2 (Homo sapiens, UniProt Q9Y2U5)
T6 construct: purchased Eurofins DiscoverX Corporation

AURKC = AURKC (Homo sapiens, UniProt Q9UQB9)
DYRK1A = target: T7, DYRK1A (Homo sapiens, UniProt Q13627)
T7 construct: purchased Eurofins DiscoverX Corporation

TRKC = target: T8, TRKC (Homo sapiens, UniProt Q16288)
T8 construct: purchased Eurofins DiscoverX Corporation
T8 sequence (Q16288 32-839): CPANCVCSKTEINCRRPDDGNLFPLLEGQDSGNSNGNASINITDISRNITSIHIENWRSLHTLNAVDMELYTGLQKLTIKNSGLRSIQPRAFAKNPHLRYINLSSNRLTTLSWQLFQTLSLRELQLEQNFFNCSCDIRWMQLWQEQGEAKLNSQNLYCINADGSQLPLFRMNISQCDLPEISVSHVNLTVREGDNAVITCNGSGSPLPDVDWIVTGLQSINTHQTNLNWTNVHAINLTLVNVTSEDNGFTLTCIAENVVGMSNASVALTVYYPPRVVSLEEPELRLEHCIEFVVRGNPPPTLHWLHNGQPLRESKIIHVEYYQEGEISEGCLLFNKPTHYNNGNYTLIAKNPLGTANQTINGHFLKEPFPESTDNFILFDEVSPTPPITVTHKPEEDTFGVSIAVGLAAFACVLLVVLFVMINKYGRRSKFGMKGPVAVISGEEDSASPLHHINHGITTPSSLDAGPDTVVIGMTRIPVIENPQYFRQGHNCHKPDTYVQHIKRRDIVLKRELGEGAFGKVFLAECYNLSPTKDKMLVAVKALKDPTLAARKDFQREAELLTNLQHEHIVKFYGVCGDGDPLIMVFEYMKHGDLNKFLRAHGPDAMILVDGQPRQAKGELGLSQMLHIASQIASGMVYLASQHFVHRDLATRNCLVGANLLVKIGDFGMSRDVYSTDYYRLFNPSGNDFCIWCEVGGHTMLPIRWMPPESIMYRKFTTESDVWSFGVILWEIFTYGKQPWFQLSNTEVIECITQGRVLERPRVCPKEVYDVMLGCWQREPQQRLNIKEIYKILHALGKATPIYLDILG

PRKCI = PRKCI (Homo sapiens, UniProt P41743)
MST2 = target: T9, MST2 (Homo sapiens, UniProt Q13188)
T9 construct: purchased Eurofins DiscoverX Corporation

EPHA3 = EPHA3 (Homo sapiens, UniProt P29320)
LRRK2(G2019S) = target: T10, LRRK2(G2019S) (Homo sapiens, UniProt Q5S007, G2019S)
T10 construct: purchased Eurofins DiscoverX Corporation

[1] = target: T11, JAK2(JH1domain-catalytic) (Homo sapiens, UniProt O60674)
T11 construct: JAK2(JH1domain-catalytic); purchased Eurofins DiscoverX (KINOMEscan)

SIK2 = SIK2 (Homo sapiens, UniProt Q9H0K1)
MST1 = target: T12, MST1 (Homo sapiens, UniProt Q13043)
T12 construct: purchased Eurofins DiscoverX Corporation
T12 sequence (Q13043 whole entry): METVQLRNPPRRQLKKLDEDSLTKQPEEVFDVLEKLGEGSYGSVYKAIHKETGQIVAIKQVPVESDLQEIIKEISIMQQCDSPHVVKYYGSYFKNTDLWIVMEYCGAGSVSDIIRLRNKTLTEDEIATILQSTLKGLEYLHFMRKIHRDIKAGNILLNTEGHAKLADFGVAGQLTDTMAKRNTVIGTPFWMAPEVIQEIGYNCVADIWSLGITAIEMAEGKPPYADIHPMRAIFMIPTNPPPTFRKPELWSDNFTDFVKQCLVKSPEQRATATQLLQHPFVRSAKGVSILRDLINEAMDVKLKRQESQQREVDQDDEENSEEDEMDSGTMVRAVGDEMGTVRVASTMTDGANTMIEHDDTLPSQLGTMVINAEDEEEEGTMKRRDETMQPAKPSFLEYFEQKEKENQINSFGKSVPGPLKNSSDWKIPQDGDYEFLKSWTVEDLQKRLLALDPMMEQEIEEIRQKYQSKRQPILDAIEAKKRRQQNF

NLK = NLK (Homo sapiens, UniProt Q9UBE8)
CDK9 = CDK9 (Homo sapiens, UniProt P50750)
NEK10 = target: T13, NEK10 (Homo sapiens, UniProt Q6ZWH5)
T13 construct: purchased Eurofins DiscoverX Corporation

STK39 = target: T14, STK39 (Homo sapiens, UniProt Q9UEW8)
T14 construct: purchased Eurofins DiscoverX Corporation

RET(V804M) = RET(V804M) (Homo sapiens, UniProt P07949, V804M)
Chain of RET(V804M) (P07949 29-1114 V804M): as the sequence (P07949 29-1114) above, with V776M counted along it

FLT4 = target: T15, FLT4 (Homo sapiens, UniProt P35916)
T15 construct: purchased Eurofins DiscoverX Corporation

HCK = target: T16, HCK (Homo sapiens, UniProt P08631)
T16 construct: purchased Eurofins DiscoverX Corporation

SNARK = SNARK (Homo sapiens, UniProt Q9H093)
SRMS = SRMS (Homo sapiens, UniProt Q9H3Y6)
PLK4 = PLK4 (Homo sapiens, UniProt O00444)
INSRR = target: T17, INSRR (Homo sapiens, UniProt P14616)
T17 construct: purchased Eurofins DiscoverX (KINOMEscan)

MAK = target: T18, MAK (Homo sapiens, UniProt P20794)
T18 construct: purchased Eurofins DiscoverX Corporation

KIT(V559D) = target: T19, KIT(V559D) (Homo sapiens, UniProt P10721, V559D)
T19 construct: purchased Eurofins DiscoverX Corporation

CHEK1 = CHEK1 (Homo sapiens, UniProt O14757)
[2] = target: T20, ABL1(Q252H)-nonphosphorylated (Homo sapiens, UniProt P00519, Q252H)
T20 construct: purchased Eurofins DiscoverX Corporation

CLK4 = CLK4 (Homo sapiens, UniProt Q9HAZ1)
ACVR1 = target: T21, ACVR1 (Homo sapiens, UniProt Q04771)
T21 construct: purchased Eurofins DiscoverX Corporation

AURKA = AURKA (Homo sapiens, UniProt O14965)

Chain of PIK3CG (P48736 whole entry): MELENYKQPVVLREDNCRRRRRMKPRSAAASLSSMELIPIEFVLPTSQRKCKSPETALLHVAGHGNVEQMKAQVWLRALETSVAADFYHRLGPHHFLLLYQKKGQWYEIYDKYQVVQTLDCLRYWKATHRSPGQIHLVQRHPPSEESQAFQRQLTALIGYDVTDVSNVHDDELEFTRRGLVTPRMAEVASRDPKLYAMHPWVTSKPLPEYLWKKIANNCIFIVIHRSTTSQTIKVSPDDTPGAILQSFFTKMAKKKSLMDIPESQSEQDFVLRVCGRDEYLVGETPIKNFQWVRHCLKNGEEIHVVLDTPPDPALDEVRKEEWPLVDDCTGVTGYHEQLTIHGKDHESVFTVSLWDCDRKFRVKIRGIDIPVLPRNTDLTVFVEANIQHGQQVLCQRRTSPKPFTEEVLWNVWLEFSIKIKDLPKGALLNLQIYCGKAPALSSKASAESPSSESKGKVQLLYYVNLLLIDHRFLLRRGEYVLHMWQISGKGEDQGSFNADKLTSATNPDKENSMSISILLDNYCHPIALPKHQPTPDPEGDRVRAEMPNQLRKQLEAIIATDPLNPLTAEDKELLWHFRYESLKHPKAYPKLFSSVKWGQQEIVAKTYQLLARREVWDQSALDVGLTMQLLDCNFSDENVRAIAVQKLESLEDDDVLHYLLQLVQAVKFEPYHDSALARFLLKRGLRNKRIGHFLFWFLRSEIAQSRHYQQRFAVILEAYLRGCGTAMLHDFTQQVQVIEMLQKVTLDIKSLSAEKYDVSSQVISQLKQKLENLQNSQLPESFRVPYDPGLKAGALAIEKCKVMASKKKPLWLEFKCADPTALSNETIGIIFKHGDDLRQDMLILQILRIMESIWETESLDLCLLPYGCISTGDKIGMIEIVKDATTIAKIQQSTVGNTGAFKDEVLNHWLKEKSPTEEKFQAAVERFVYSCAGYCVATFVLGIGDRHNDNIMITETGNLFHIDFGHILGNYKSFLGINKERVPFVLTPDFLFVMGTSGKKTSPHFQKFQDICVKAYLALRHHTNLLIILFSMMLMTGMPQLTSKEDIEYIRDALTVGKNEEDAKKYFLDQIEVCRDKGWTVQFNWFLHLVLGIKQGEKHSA

In the case of `C=CC(=O)Nc1ccc(OC)c(Nc2cc(-c3[nH]c(CC)nc3-c3cccc(NC(=O)c4cccc5c4NC(=O)c4ccccc4N5)c3)ccn2)c1` [Compound 4], the POC (EGFR(T790M)) is reported as 12% of control, the POC (PIK3CA(H1047L)) is reported as 100% of control and the POC (PIK3CG) is reported as 65% of control. For the same compound, the POC (CDK4) was 100% of control, the POC (RIOK2) was 83% of control and the POC (MYLK2) was 84% of control. For the same compound, the POC (FRK) was 20% of control, the POC (DYRK2) was 75% of control and the POC (MUSK) was 100% of control. For the same compound, the POC (EPHB2) was 100% of control, the POC (LKB1) was 100% of control and the POC (PHKG1) was 96% of control. For the same compound, the POC (RET) was 99% of control, the POC (ADCK4) was 85% of control and the POC (MAP3K2) was 100% of control. The POC (AURKC) was 100% of control, the POC (DYRK1A) was 100% of control and the POC (TRKC) was 87% of control. The POC (PRKCI) was 100% of control, the POC (MST2) was 14% of control and the POC (EPHA3) was 81% of control. For the same compound, the POC (LRRK2(G2019S)) was 100% of control, the POC [1] was 86% of control and the POC (SIK2) was 100% of control. For the same compound, the POC (MST1) was 6% of control, the POC (NLK) was 48% of control and the POC (CDK9) was 100% of control. For the same compound, the POC (NEK10) was 86% of control, the POC (STK39) was 85% of control and the POC (RET(V804M)) was 91% of control. The POC (FLT4) was 100% of control, the POC (HCK) was 14% of control and the POC (SNARK) was 100% of control. For the same compound, the POC (SRMS) was 61% of control, the POC (PLK4) was 71% of control and the POC (INSRR) was 87% of control. For the same compound, the POC (MAK) was 89% of control, the POC (KIT(V559D)) was 100% of control and the POC (CHEK1) was 100% of control. For the same compound, the POC [2] was 100% of control, the POC (CLK4) was 100% of control and the POC (ACVR1) was 96% of control. The POC (AURKA) was 90% of control.
